Laboratory results taken from PMC10447463, “Data-mining unveils structure–property–activity correlation of viral infectivity enhancing self-assembling peptides” (Nature Communications, 2023).
Like-named read-outs stand apart in the source and are kept apart here.

Key:
[1] = assay type: physicochemical; set-up: key to Fibril / Fibril Formation / TEM 2cat / Fibril: 1 = fibrils present; 0 non-fibrillar structures; conditions: for Fibril: 1 = fibrils present
[2] = assay type: physicochemical
In short: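 Fibrils (1 mg/mL solution) were mixed with 50 µM ThT in PBS for 15 min at RT, and fluorescence was read at λex 440/λem 488 nm against a PBS blank, as a triplicate mean ± SD. Zeta potential came from electrophoretic mobility (Smoluchowski) after 1 d aggregation at 1 mg/mL in PBS pH 7.4, diluted into 1 mM KCl.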

[3] = ThT fluorescence relative to blank (42.1851851851852 a.u.)
[4] = relative to blank 42.1851851851852 a.u.
[5] = ThT fluorescence relative to blank, blank = 42.1851851851852

Row | Substance | TEM: 1= fibrils, 0= aggregates (micelle), 0.5 = aggregates and fibrils, -1 = nothing obersved, STD prep [1] | Tht rel to blank (42.1851851851852) [2, 3] | Tht category (> 1.5 to blank = +) ([2]; category 1/0) | Tht rel to blank (42.1851851851852) [2, 4] | Tht rel to blank (42.1851851851852) [2, 5] | other results
1 | KFKFQFNM [BL6a] | 1 | 1.202 | 0 (ThT-inactive (N-Fold <2)) | 1.202 | – | –
2 | KFKFQFNMW | – | – | – | – | – | TEM 2cat ([1]; Fig S10 panel D): 1; Fibril / Fibril Formation ([1]; TEM, 1 mg/mL, uranyl acetate stain, qualitative): 1; Fibril ([1]; TEM, 0 = non-fibrillar): 1; Fibril ([1]; TEM, 0 = non-fibrillar structures): 1; TEM 2cat ([1]; category: fibrils present or non-fibrillar): 1; Tht category (> 2 to blank = +) ([2]; Fig S10 panel D): 0 (ThT-inactive (N-Fold <2)); ThT Cat, ([2]; ThT category, 1 if Rel. ThT >2): 0 (ThT-inactive (N-Fold <2)); ThT Cat. ([2]; ThT category, 1 if Rel. ThT >2): 0 (ThT-inactive (N-Fold <2)); ThT Cat. / ThT-Fluorescence (categorical) ([2]; ThT-active if fluorescence at least twice the control): 0 (ThT-inactive (N-Fold <2))
3 | KFKFQFNMWQ [JG4] | 1 | 2.807 | 1 (ThT. Cat is 1, if Rel. ThT >2) | 2.807 | – | TEM: 1= fibrils, 0= aggregates (micelle), 0.5 = aggregates and fibrils, -1 = nothing obersved, STD prep ([1]; TEM): 1; Tht category (> 1.5 to blank = +) ([2]; FigS26): 1 (Tht category (> 1.5 to blank = +)); Tht category (> 1.5 to blank = +) ([2]; category from ThT rel to blank): 1 (ThT. Cat is 1, if Rel. ThT >2)
4 | KFKFQFW [TM71] | 1 | 3.529 | 1 (ThT. Cat is 1, if Rel. ThT >2) | 3.529 | 3.529 | –
5 | KFKQFFNMWQ [JG5] | 0 | 1.589 | 0 (ThT-inactive (N-Fold <2)) | – | 1.589 | –
6 | KIKIKIQI [TG13] | 1 | 2.036 | 1 (ThT. Cat is 1, if Rel. ThT >2) | – | 2.036 | –
7 | KIKIQI [JJA4] | 0.5 | 1.097 | 0 (ThT-inactive (N-Fold <2)) | 1.097 | – | –
8 | KIKIQIC [TM112 / CN11] | 1 | 4.12 | 1 (ThT. Cat is 1, if Rel. ThT >2) | – | 4.12 | Tht category (> 1.5 to blank = +) ([2]; FigS26): 1 (Tht category (> 1.5 to blank = +))
9 | KIKIQINM [JGB2] | 1 | 1.587 | 0 (ThT-inactive (N-Fold <2)) | 1.587 | – | –
10 | KIKIQINMW [JGB1 /TM85] | 1 | 4.61 | 1 (ThT. Cat is 1, if Rel. ThT >2) | 4.61 | – | –
11 | KIKIQINMWQ [JG1] | 1 | 5.939 | 1 (ThT. Cat is 1, if Rel. ThT >2) | 5.939 | – | TEM: 1= fibrils, 0= aggregates (micelle), 0.5 = aggregates and fibrils, -1 = nothing obersved, STD prep ([1]; FigS26): 1; Tht category (> 1.5 to blank = +) ([2]; FigS26): 1 (Tht category (> 1.5 to blank = +))
12 | KIKQII [msis21] | 0 | 1.001 | 0 (ThT-inactive (N-Fold <2)) | – | 1.001 | –
13 | KIKQIINM [JGA2] | 1 | 1.176 | – | – | – | –
14 | KIKQIINMWQ [JG2] | 1 | 4.945 | 1 (ThT. Cat is 1, if Rel. ThT >2) | – | 4.945 | TEM: 1= fibrils, 0= aggregates (micelle), 0.5 = aggregates and fibrils, -1 = nothing obersved, STD prep ([1]; FigS26): 1; Tht category (> 1.5 to blank = +) ([2]; FigS26): 1 (Tht category (> 1.5 to blank = +))
